ChEMBL document CHEMBL1201862, “PubChem BioAssay data set” (2004)
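Interpolation was linear, between the two tested concentrations surrounding the appropriate level; five concentrations were tested over 48 hours in 96-well plates. At the GI50, growth is halved.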 Active and inactive are the calls of the source. Rule as the data show it: active = GI50 up to about 1.1 µM and inactive = higher.

Columns and labels:
Assay in all cases: growth of human tumour cells (NCI), 48 h
[1] = tested on: A549
[2] = tested on: CAKI-1
[3] = tested on: COLO 205
[4] = tested on: DU-145
[5] = tested on: HCC 2998
[6] = tested on: HCT-15
[7] = tested on: LOX IMVI
[8] = tested on: MOLT-4
[9] = tested on: Malme-3M
[10] = tested on: NCI-H226
[11] = tested on: NCI-H23
[12] = tested on: SF-295
[13] = tested on: SK-MEL-5
[14] = tested on: SW-620
[15] = tested on: T47D
[16] = tested on: UACC-62
[17] = tested on: UO-31
[18] = tested on: HL-60
[19] = tested on: RXF 393
[20] = tested on: SR

Compound: OC12COc3ccccc3C1Oc1ccccc1C2 (stereo not drawn)
- GI50 [1]: > 100 µM (inactive)
- GI50 [2]: > 100 µM (inactive)
- GI50 [3]: > 100 µM (inactive)
- GI50 [4]: > 100 µM (inactive)
- GI50 [5]: > 100 µM (inactive)
- GI50 [6]: > 100 µM
- GI50 [7]: > 100 µM (inactive)
- GI50 [8]: > 100 µM (inactive)
- GI50 [9]: > 100 µM (inactive)
- GI50 [10]: > 100 µM (inactive)
- GI50 [11]: > 100 µM (inactive)
- GI50 [12]: > 100 µM (inactive)
- GI50 [13]: > 100 µM (inactive)
- GI50 [14]: > 100 µM (inactive)
- GI50 [15]: > 100 µM (inactive)
- GI50 [16]: > 100 µM (inactive)
- GI50 [17]: > 100 µM (inactive)

Compound: O=C1Nc2c(Cl)cc(Cl)cc2/C1=N/NC(=O)c1ccncc1
- GI50 [1]: > 100 µM (inactive)
- GI50 [2]: 18.4 µM (inactive)
- GI50 [3]: 27.2 µM (inactive)
- GI50 [5]: 44.1 µM (inactive)
- GI50 [6]: 32.1 µM
- GI50 [18]: 9.64 µM (inactive)
- GI50 [7]: 16.9 µM (inactive)
- GI50 [8]: 25.2 µM (inactive)
- GI50 [9]: 16.9 µM (inactive)
- GI50 [10]: 47.2 µM (inactive)
- GI50 [11]: 22.8 µM (inactive)
- GI50 [19]: 20 µM (inactive)
- GI50 [12]: 38.5 µM (inactive)
- GI50 [13]: 17.9 µM (inactive)
- GI50 [20]: 14.7 µM (inactive)
- GI50 [14]: 28.4 µM (inactive)
- GI50 [16]: 17.3 µM (inactive)
- GI50 [17]: 27.9 µM (inactive)

Compound: C=CCN1C(=O)CC(=O)N(NC2=NNC3(C(=O)N2)c2ccccc2-c2ccccc23)C1=S
- GI50 [1]: 34.2 µM (inactive)
- GI50 [2]: 48.3 µM (inactive)
- GI50 [3]: 21.7 µM (inactive)
- GI50 [4]: 44.5 µM (inactive)
- GI50 [5]: 38.6 µM (inactive)
- GI50 [6]: 35.7 µM
- GI50 [18]: 27.9 µM (inactive)
- GI50 [7]: 42.7 µM (inactive)
- GI50 [9]: 38 µM (inactive)
- GI50 [10]: 13.8 µM (inactive)
- GI50 [11]: 29.2 µM (inactive)
- GI50 [19]: 27.7 µM (inactive)
- GI50 [12]: 37 µM (inactive)
- GI50 [13]: 31.4 µM (inactive)
- GI50 [20]: 15.6 µM (inactive)
- GI50 [14]: 38.5 µM (inactive)
- GI50 [16]: 28.5 µM (inactive)
- GI50 [17]: 31.8 µM (inactive)

Compound: Nc1c2ccccc2nc2nccnc12
- GI50 [1]: > 100 µM (inactive)
- GI50 [2]: > 100 µM (inactive)
- GI50 [3]: > 100 µM (inactive)
- GI50 [5]: > 100 µM (inactive)
- GI50 [6]: > 100 µM
- GI50 [18]: > 100 µM (inactive)
- GI50 [7]: > 100 µM (inactive)
- GI50 [8]: > 100 µM (inactive)
- GI50 [9]: > 100 µM (inactive)
- GI50 [10]: > 100 µM (inactive)
- GI50 [11]: > 100 µM (inactive)
- GI50 [19]: > 100 µM (inactive)
- GI50 [12]: > 100 µM (inactive)
- GI50 [13]: > 100 µM (inactive)
- GI50 [20]: > 100 µM (inactive)
- GI50 [14]: > 100 µM (inactive)
- GI50 [16]: > 100 µM (inactive)
- GI50 [17]: > 100 µM (inactive)

Compound: CC1(C)CC2=C(Sc3ccccc3N2)C(=O)C1C(=O)C(=O)Nc1cccc([N+](=O)[O-])c1 (stereo not drawn)
- GI50 [1]: > 100 µM (inactive)
- GI50 [2]: > 100 µM (inactive)
- GI50 [3]: > 100 µM (inactive)
- GI50 [4]: > 100 µM (inactive)
- GI50 [5]: > 100 µM (inactive)
- GI50 [6]: > 100 µM
- GI50 [18]: > 100 µM (inactive)
- GI50 [7]: > 100 µM (inactive)
- GI50 [8]: 33 µM (inactive)
- GI50 [9]: > 100 µM (inactive)
- GI50 [10]: > 100 µM (inactive)
- GI50 [11]: > 100 µM (inactive)
- GI50 [12]: > 100 µM (inactive)
- GI50 [13]: > 100 µM (inactive)
- GI50 [14]: > 100 µM (inactive)
- GI50 [15]: > 100 µM (inactive)
- GI50 [16]: 98.2 µM (inactive)
- GI50 [17]: > 100 µM (inactive)

Compound: Cc1cc(C)c2c(c1)N[S@@](=O)S2
- GI50 [1]: 27.9 µM (inactive)
- GI50 [2]: 25.2 µM (inactive)
- GI50 [3]: 18.2 µM (inactive)
- GI50 [5]: 39.6 µM (inactive)
- GI50 [6]: 16.5 µM
- GI50 [18]: 26.4 µM (inactive)
- GI50 [7]: 15.3 µM (inactive)
- GI50 [8]: 25.8 µM (inactive)
- GI50 [9]: 25.2 µM (inactive)
- GI50 [10]: 19.2 µM (inactive)
- GI50 [11]: 35.4 µM (inactive)
- GI50 [19]: 10.6 µM (inactive)
- GI50 [12]: 39.7 µM (inactive)
- GI50 [13]: 29.9 µM (inactive)
- GI50 [20]: 36.2 µM (inactive)
- GI50 [14]: 3.74 µM (inactive)
- GI50 [16]: 18.6 µM (inactive)
- GI50 [17]: 23 µM (inactive)

Compound: Cc1ccccc1C1OC(=O)c2ccc3ccccc3c21 (stereo not drawn)
- GI50 [1]: 5.48 µM (inactive)
- GI50 [2]: 6.21 µM (inactive)
- GI50 [3]: 1.37 µM (inactive)
- GI50 [5]: 4 µM (inactive)
- GI50 [6]: 2.93 µM
- GI50 [18]: 2.79 µM (inactive)
- GI50 [7]: 2.57 µM (inactive)
- GI50 [8]: 2.23 µM (inactive)
- GI50 [9]: 5.56 µM (inactive)
- GI50 [10]: 4.75 µM (inactive)
- GI50 [11]: 5.71 µM (inactive)
- GI50 [19]: 2.59 µM (inactive)
- GI50 [12]: 7.35 µM (inactive)
- GI50 [13]: 3.53 µM (inactive)
- GI50 [20]: 0.769 µM (active)
- GI50 [14]: 4.52 µM (inactive)
- GI50 [16]: 2.94 µM (inactive)
- GI50 [17]: 2.77 µM (inactive)

Compound: CSc1ccc(N2C(=O)C3c4[nH]c5ccccc5c4C4CCC(C(C)(C)C)CC4C3C2=O)cc1 (stereo not drawn)
- GI50 [1]: 15.3 µM (inactive)
- GI50 [2]: 19.9 µM (inactive)
- GI50 [3]: 10 µM (inactive)
- GI50 [5]: 15.6 µM (inactive)
- GI50 [6]: 66.2 µM
- GI50 [18]: 13.7 µM (inactive)
- GI50 [7]: 14 µM (inactive)
- GI50 [8]: 15.4 µM (inactive)
- GI50 [9]: 12.3 µM (inactive)
- GI50 [10]: 19.1 µM (inactive)
- GI50 [11]: 15.5 µM (inactive)
- GI50 [19]: 20.3 µM (inactive)
- GI50 [12]: 14.3 µM (inactive)
- GI50 [13]: 25.8 µM (inactive)
- GI50 [20]: 10.2 µM (inactive)
- GI50 [14]: 21.3 µM (inactive)
- GI50 [16]: 13.8 µM (inactive)
- GI50 [17]: 16.5 µM (inactive)
